Reference: ChEMBL document CHEMBL4359828, “Back to the future: Advances in development of broad-spectrum capsid-binding inhibitors of enteroviruses” (Eur J Med Chem, 2019)

How the values were obtained:
Poliovirus 2 [1] = assay: Antiviral activity against Human poliovirus 2; format: functional, organism-based; settings: Enterovirus C
rhinovirus A2 = assay: Antiviral activity against Human rhinovirus A2; format: functional, organism-based; settings: Rhinovirus A
Poliovirus 2 [2] = assay: Antiviral activity against Human poliovirus 2 infected in mouse; format: functional, organism-based; settings: Enterovirus C
[3] = Antiviral activity against Echovirus-3; format: functional, Echovirus E3
Echovirus E11 = assay: Antiviral activity against Echovirus-11; format: functional, organism-based; settings: Enterovirus B
Enterovirus [4] = assay: Antiviral activity against Rhinovirus; format: functional, organism-based; settings: Enterovirus
rhinovirus B5 = assay: Antiviral activity against Human rhinovirus B5; format: functional, organism-based; settings: Rhinovirus B
Coxsackievirus B3 = assay: Antiviral activity against Coxsackievirus B3; format: functional, organism-based; settings: Enterovirus B
[5] = Antiviral activity against Human rhinovirus A8; format: functional
[6] = Antiviral activity against Human rhinovirus B42; format: functional
[7] = Antiviral activity against Human rhinovirus B48; format: functional
[8] = Antiviral activity against Human rhinovirus B3; format: functional
Enterovirus A71 = assay: Antiviral activity against Enterovirus A71; format: functional, organism-based; settings: Enterovirus A
rhinovirus B14 = assay: Antiviral activity against Human rhinovirus B14; format: functional, organism-based; settings: Rhinovirus B
Enterovirus [9] = assay: Antiviral activity against Rhinovirus at 32 uM relative to control; format: functional

Cc1cc(CCCCCCCOc2ccc(C3=NCC(CO)O3)cc2)on1 (stereo unspecified)
IC50 (Poliovirus 2 [1]): 900 to 2600 nM | IC50 (rhinovirus A2): 900 to 2600 nM

Cc1cc(CCCCCCCOc2ccc(C3=NC(C)CO3)cc2)on1 (stereo unspecified)
IC50 (Poliovirus 2 [1]): 100 to 120 nM | IC50 (rhinovirus A2): 40 to 60 nM

COc1ccc(OCCCCCCCc2cc(C)no2)c(Cl)c1
IC50 (Poliovirus 2 [2]): 40 to 150 nM | IC50 [3]: 40 to 150 nM | IC50 (Echovirus E11): 40 to 150 nM | IC50 (Enterovirus [4]): 10 to 5800 nM

Nc1nc(-c2ccccc2)nc2[nH]nc(Nc3ccc(C(F)(F)F)cc3)c12
IC50 (rhinovirus A2): 40 to 640 nM | IC50 (rhinovirus B5): 40 to 640 nM | IC50 (Coxsackievirus B3): 40 to 640 nM | IC50 [5]: 40 to 640 nM | IC50 [6]: 40 to 640 nM | IC50 [7]: 40 to 640 nM

Cc1cc(CCCCCOc2ccc(C3=NCCO3)cc2)on1
IC50 (Poliovirus 2 [1]): 3 nM | IC50 (rhinovirus A2): 100 to 120 nM

Cc1cc(CCCOc2c(C)cc(-c3ccc(OC(F)(F)F)cc3)cc2C)on1
IC50 (rhinovirus A2): 9 nM | IC50 (Coxsackievirus B3): 1340 nM

Cc1ccc(-c2cc(C)c(OCCCc3cc(C)no3)c(C)c2)cc1
IC50 (rhinovirus B5): 110 nM | IC50 [8]: 120 nM

Cc1cc(CCCOc2c(C)cc(-c3ccccc3F)cc2C)on1
IC50 (rhinovirus B5): 110 nM | IC50 [8]: 120 nM

COc1cc(-c2cc(C)c(OCCCc3cc(C)no3)c(C)c2)cc(OC)c1OC
IC50 (rhinovirus A2): 9 nM | IC50 (Coxsackievirus B3): 1340 nM

Cc1cc(CCCOc2c(C)cc(-c3ccc(-c4ccccc4)cc3)cc2C)on1
IC50 (rhinovirus A2): 9 nM | IC50 (Coxsackievirus B3): 1340 nM

Cc1cc(CCCOc2c(C)cc(-c3cccc([N+](=O)[O-])c3)cc2C)on1
IC50 (rhinovirus B5): 350 nM | IC50 [8]: 350 nM

COc1ccc(OCc2ccc(COc3ccc(OC)cc3Cl)cc2)c(Cl)c1
EC50 (Enterovirus [4]): 10 nM

Cc1cc(CCCOc2c(C)cc(-c3cc(C(F)(F)F)cc(C(F)(F)F)c3)cc2C)on1
IC50 (rhinovirus A2): 9 nM | IC50 (Coxsackievirus B3): 1340 nM

CCc1nc(-c2ccc(OCCC(C)CCN3CCN(c4ccncc4)C3=O)cc2)no1 (stereo unspecified)
EC50 (Enterovirus A71): 0.5 nM

Cc1cc(CCCOc2c(C)cc(-c3ccc(C)c(C)c3)cc2C)on1
IC50 (rhinovirus A2): 9 nM | IC50 (Coxsackievirus B3): 1340 nM

Cc1cc(CCCOc2c(C)cc(-c3cccc(F)c3)cc2C)on1
IC50 (rhinovirus A2): 9 nM | IC50 (Coxsackievirus B3): 1340 nM

Cc1cc(CCCOc2c(C)cc(-c3ccc([N+](=O)[O-])cc3)cc2C)on1
IC50 (rhinovirus B5): 760 nM | IC50 [8]: 760 nM

Cc1cc(CCCOc2c(C)cc(-c3ccccc3C)cc2C)on1
IC50 (rhinovirus A2): 9 nM | IC50 (Coxsackievirus B3): 1340 nM

Cc1nc(-c2ccc(OCCC(C)CCN3CCN(c4ccncc4)C3=O)cc2)no1 (stereo unspecified)
EC50 (Enterovirus A71): 0.9 nM

Cc1cc(CCCCCOc2c(Cl)cc(-c3ccc(Cl)o3)cc2Cl)on1
IC50 (rhinovirus B14): 2000 nM

COc1ccc(N2CCN(c3cccc(C)c3)CC2)nn1
inhibition at 32 µM (Enterovirus [9]): 80%

Cc1cc(CCCOc2c(C)cc(-c3ccc(Cl)cc3)cc2C)on1
IC50 (rhinovirus B5): 110 nM | IC50 [8]: 120 nM

Cc1cc(CCCCCOc2c(Cl)cc(-c3ccc(C)s3)cc2Cl)on1
IC50 (rhinovirus B14): 5200 nM
